Assay results: PubChem BioAssay AID1259407 (Chemical Carcinogenesis Research Information System (CCRIS), 2018)
Calls of active or inactive are those of the source. No rule for the calls is given here.

System: CCRIS mutagenicity, Ames/micronucleus/aberration tests
Assay: CCRIS mutagenicity studies
[1] = Test System: AMES SALMONELLA TYPHIMURIUM, Strain/Indicator: TA98, Metabolic Activation: NONE, Method: STANDARD PLATE
[2] = Test System: AMES SALMONELLA TYPHIMURIUM, Strain/Indicator: TA98, Metabolic Activation: RAT, LIVER, S-9, AROCLOR 1254, Method: STANDARD PLATE
[3] = Test System: AMES SALMONELLA TYPHIMURIUM, Strain/Indicator: TA100, Metabolic Activation: NONE, Method: STANDARD PLATE
[4] = Test System: AMES SALMONELLA TYPHIMURIUM, Strain/Indicator: TA100, Metabolic Activation: RAT, LIVER, S-9, AROCLOR 1254, Method: STANDARD PLATE
[5] = Test System: AMES SALMONELLA TYPHIMURIUM, Strain/Indicator: TA1535, Metabolic Activation: NONE, Method: STANDARD PLATE
[6] = Test System: AMES SALMONELLA TYPHIMURIUM, Strain/Indicator: TA1535, Metabolic Activation: RAT, LIVER, S-9, AROCLOR 1254, Method: STANDARD PLATE
[7] = Test System: AMES SALMONELLA TYPHIMURIUM, Strain/Indicator: TA1537, Metabolic Activation: NONE, Method: STANDARD PLATE
[8] = Test System: AMES SALMONELLA TYPHIMURIUM, Strain/Indicator: TA1537, Metabolic Activation: RAT, LIVER, S-9, AROCLOR 1254, Method: STANDARD PLATE
[9] = Test System: AMES SALMONELLA TYPHIMURIUM, Strain/Indicator: TA1538, Metabolic Activation: NONE, Method: STANDARD PLATE
[10] = Test System: AMES SALMONELLA TYPHIMURIUM, Strain/Indicator: TA1538, Metabolic Activation: RAT, LIVER, S-9, AROCLOR 1254, Method: STANDARD PLATE

In the case of C=C(C)C(=O)OC(C)(C)C, the mutagenic call [1] is reported as “inactive; negative”, the mutagenic call [2] is reported as “inactive; negative” and the mutagenic call (Test System: AMES SALMONELLA TYPHIMURIUM, Strain/Indicator: TA98, Metabolic Activation: RAT, LIVER, S-9, SODIUM PHENOBARBITAL, Method: STANDARD PLATE) is reported as “inactive; negative”. The mutagenic call [3] was “inactive; negative”, the mutagenic call [4] was “inactive; negative” and the mutagenic call (Test System: AMES SALMONELLA TYPHIMURIUM, Strain/Indicator: TA100, Metabolic Activation: RAT, LIVER, S-9, SODIUM PHENOBARBITAL, Method: STANDARD PLATE) was “inactive; negative”. For the same compound, the mutagenic call [5] was “inactive; negative”, the mutagenic call [6] was “inactive; negative” and the mutagenic call (Test System: AMES SALMONELLA TYPHIMURIUM, Strain/Indicator: TA1535, Metabolic Activation: RAT, LIVER, S-9, SODIUM PHENOBARBITAL, Method: STANDARD PLATE) was “inactive; negative”. For the same compound, the mutagenic call [7] was “inactive; negative”, the mutagenic call [8] was “inactive; negative” and the mutagenic call (Test System: AMES SALMONELLA TYPHIMURIUM, Strain/Indicator: TA1537, Metabolic Activation: RAT, LIVER, S-9, SODIUM PHENOBARBITAL, Method: STANDARD PLATE) was “inactive; negative”. For the same compound, the mutagenic call [9] was “inactive; negative”, the mutagenic call [10] was “inactive; negative” and the mutagenic call (Test System: AMES SALMONELLA TYPHIMURIUM, Strain/Indicator: TA1538, Metabolic Activation: RAT, LIVER, S-9, SODIUM PHENOBARBITAL, Method: STANDARD PLATE) was “inactive; negative”.

With CC(C)N(C(=O)SCC(Cl)=C(Cl)Cl)C(C)C the mutagenic call [1] was “inactive; negative”, the mutagenic call [2] was “active; positive” and the mutagenic call [3] was “inactive; negative”. For the same compound, the mutagenic call [4] was “active; positive”, the mutagenic call [5] was “inactive; negative” and the mutagenic call [6] was “active; positive”. The mutagenic call [7] was “inactive; negative”, the mutagenic call [8] was “inactive; negative” and the mutagenic call [9] was “inactive; negative”. The mutagenic call [10] was “inactive; negative”.

For CCN(CC)CCCC(C)Nc1ccnc2cc(Cl)ccc12 (configuration not stated), the mutagenic call (Test System: AMES SALMONELLA TYPHIMURIUM, Strain/Indicator: TA97, Metabolic Activation: NONE, Method: STANDARD PLATE) was “active; positive”, the mutagenic call (Test System: AMES SALMONELLA TYPHIMURIUM, Strain/Indicator: TA97A, Metabolic Activation: NONE, Method: STANDARD PLATE) was “inactive; negative” and the mutagenic call (Test System: AMES SALMONELLA TYPHIMURIUM, Strain/Indicator: TA97A, Metabolic Activation: RAT LIVER S-9, PHENOBARBITAL, Method: STANDARD PLATE) was “inactive; negative”. For the same compound, the mutagenic call (Test System: AMES SALMONELLA TYPHIMURIUM, Strain/Indicator: TA97A, Metabolic Activation: RAT, LIVER, S-9, AROCLOR 1254, Method: STANDARD PLATE) was “inactive; negative”, the mutagenic call (Test System: AMES SALMONELLA TYPHIMURIUM, Strain/Indicator: TA98, Metabolic Activation: NONE, Method: PREINCUBATION) was “inactive; negative” and the mutagenic call [1] was “active; positive”. The mutagenic call (Test System: AMES SALMONELLA TYPHIMURIUM, Strain/Indicator: TA98, Metabolic Activation: RAT, LIVER, S-9, AROCLOR 1254 OR PHENOBARBITOL, Method: STANDARD PLATE) was “active; positive”, the mutagenic call (Test System: AMES SALMONELLA TYPHIMURIUM, Strain/Indicator: TA98, Metabolic Activation: RAT, LIVER, S-9, PCB, Method: STANDARD PLATE) was “inactive; negative” and the mutagenic call (Test System: AMES SALMONELLA TYPHIMURIUM, Strain/Indicator: TA98, Metabolic Activation: RAT, LIVER, S-9, Method: PREINCUBATION) was “inactive; negative”. The mutagenic call (Test System: AMES SALMONELLA TYPHIMURIUM, Strain/Indicator: TA100, Metabolic Activation: NONE, Method: PREINCUBATION) was “inactive; negative”, the mutagenic call (Test System: AMES SALMONELLA TYPHIMURIUM, Strain/Indicator: TA100, Metabolic Activation: RAT LIVER S-9, PHENOBARBITAL, Method: STANDARD PLATE) was “inactive; negative” and the mutagenic call (Test System: AMES SALMONELLA TYPHIMURIUM, Strain/Indicator: TA100, Metabolic Activation: RAT, LIVER, S-9, AROCLOR 1254 OR PHENOBARBITOL, Method: STANDARD PLATE) was “active; positive”. For the same compound, the mutagenic call (Test System: AMES SALMONELLA TYPHIMURIUM, Strain/Indicator: TA100, Metabolic Activation: RAT, LIVER, S-9, PCB, Method: STANDARD PLATE) was “inactive; negative”, the mutagenic call (Test System: AMES SALMONELLA TYPHIMURIUM, Strain/Indicator: TA100, Metabolic Activation: RAT, LIVER, S-9, Method: PREINCUBATION) was “inactive; negative” and the mutagenic call (Test System: AMES SALMONELLA TYPHIMURIUM, Strain/Indicator: TA102, Metabolic Activation: NONE, Method: STANDARD PLATE) was “inactive; negative”. The mutagenic call (Test System: AMES SALMONELLA TYPHIMURIUM, Strain/Indicator: TA102, Metabolic Activation: RAT LIVER S-9, PHENOBARBITAL, Method: STANDARD PLATE) was “inactive; negative”, the mutagenic call (Test System: AMES SALMONELLA TYPHIMURIUM, Strain/Indicator: TA104, Metabolic Activation: NONE, Method: STANDARD PLATE) was “inactive; negative” and the mutagenic call (Test System: AMES SALMONELLA TYPHIMURIUM, Strain/Indicator: TA104, Metabolic Activation: RAT LIVER S-9, PHENOBARBITAL, Method: STANDARD PLATE) was “inactive; negative”. For the same compound, the mutagenic call [5] was “inactive; negative”, the mutagenic call (Test System: AMES SALMONELLA TYPHIMURIUM, Strain/Indicator: TA1535, Metabolic Activation: RAT, LIVER, S-9, AROCLOR 1254 OR PHENOBARBITOL, Method: STANDARD PLATE) was “inactive; negative” and the mutagenic call (Test System: AMES SALMONELLA TYPHIMURIUM, Strain/Indicator: TA1537, Metabolic Activation: NONE, Method: MICROFLUCTUATION) was “active; positive”. For the same compound, the mutagenic call [7] was “inactive; negative”, the mutagenic call [8] was “inactive; negative” and the mutagenic call (Test System: AMES SALMONELLA TYPHIMURIUM, Strain/Indicator: TA1537, Metabolic Activation: RAT, LIVER, S-9, AROCLOR 1254 OR PHENOBARBITOL, Method: STANDARD PLATE) was “inactive; negative”. For the same compound, the mutagenic call (Test System: AMES SALMONELLA TYPHIMURIUM, Strain/Indicator: TA1537, Metabolic Activation: RAT, LIVER, S-9, PCB, Method: STANDARD PLATE) was “inactive; negative”, the mutagenic call [9] was “inactive; negative” and the mutagenic call (Test System: AMES SALMONELLA TYPHIMURIUM, Strain/Indicator: TA1538, Metabolic Activation: RAT, LIVER, S-9, AROCLOR OR PHENOBARBITOL, Method: STANDARD PLATE) was “inactive; negative”. The mutagenic call (Test System: AMES SALMONELLA TYPHIMURIUM, Strain/Indicator: TA1538, Metabolic Activation: RAT, LIVER, S-9, PCB, Method: STANDARD PLATE) was “inactive; negative”, the mutagenic call (Test System: AMES SALMONELLA TYPHIMURIUM, Strain/Indicator: TA1977, Metabolic Activation: NONE, Method: MICROFLUCTUATION) was “inactive; negative” and the mutagenic call (Test System: E. COLI, Strain/Indicator: DG1669, Metabolic Activation: NONE, Method: STANDARD PLATE) was “active; positive”. For the same compound, the mutagenic call (Test System: E. COLI, Strain/Indicator: DG1669, Metabolic Activation: RAT, LIVER, S-9, AROCLOR 1254, Method: STANDARD PLATE) was “active; positive” and the mutagenic call (Test System: E. COLI, Strain/Indicator: WP2 UVRA, Metabolic Activation: RAT, LIVER, S-9, PCB, Method: STANDARD PLATE) was “inactive; negative”.
